Assays:
[1] = tested on: Yersinia pseudotuberculosis; experiment: IC25 growth inhibition; higher = less potent
Outline: (§1)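 Monocultures grown overnight in mGAM were added to pre-reduced plates holding twofold drug dilutions, giving a starting OD578 of 0.01 and 1% DMSO (or water). Growth was followed anaerobically by hourly OD578 readings in a plate reader, with at least three biological replicates. The median growth-curve AUC per concentration was forced to be monotonic. IC25 was the lowest concentration with median AUC below 0.75, reported as a tested interval.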

Ruminococcus gnavus = experiment: IC25 growth inhibition; higher = less potent
Outline: as §1

Roseburia intestinalis = experiment: IC25 growth inhibition; higher = less potent
Outline: as §1

Clostridium ramosum = experiment: IC25 growth inhibition; higher = less potent
Outline: as §1

Dorea formicigenerans = experiment: IC25 growth inhibition; higher = less potent
Outline: as §1

[2] = tested on: Yersinia enterocolitica WA-314; experiment: IC25 growth inhibition; higher = less potent
Outline: as §1

Parabacteroides merdae = experiment: IC25 growth inhibition; higher = less potent
Outline: as §1

Clostridium bolteae = experiment: IC25 growth inhibition; higher = less potent
Outline: as §1

Collinsella aerofaciens = experiment: IC25 growth inhibition; higher = less potent
Outline: as §1

Bacteroides fragilis NT = experiment: IC25 growth inhibition; higher = less potent
Outline: as §1

[3] = tested on: Fusobacterium nucleatum subsp. Nucleatum; experiment: IC25 growth inhibition; higher = less potent
Outline: as §1

Escherichia coli ED1a = experiment: IC25 growth inhibition; higher = less potent
Outline: as §1

[4] = tested on: Bacteroides thetaiotaomicron; experiment: IC25 growth inhibition; higher = less potent
Outline: as §1

Shigella flexneri = experiment: IC25 growth inhibition; higher = less potent
Outline: as §1

[5] = tested on: Clostridium saccharolyticum; experiment: IC25 growth inhibition; higher = less potent
Outline: as §1

Clostridium perfringens = experiment: IC25 growth inhibition; higher = less potent
Outline: as §1

Eubacterium rectale = experiment: IC25 growth inhibition; higher = less potent
Outline: as §1

Vibrio cholerae = experiment: IC25 growth inhibition; higher = less potent
Outline: as §1

Streptococcus salivarius = experiment: IC25 growth inhibition; higher = less potent
Outline: as §1

[6] = tested on: Salmonella enterica typhimurium; experiment: IC25 growth inhibition; higher = less potent
Outline: as §1

Coprococcus comes = experiment: IC25 growth inhibition; higher = less potent
Outline: as §1

Bacteroides vulgatus = experiment: IC25 growth inhibition; higher = less potent
Outline: as §1

[7] = tested on: Streptococcus parasanguinis; experiment: IC25 growth inhibition; higher = less potent
Outline: as §1

Bacteroides uniformis = experiment: IC25 growth inhibition; higher = less potent
Outline: as §1

[8] = tested on: Com21 synthetic gut community; experiment: community biomass OD578 after 24 h drug treatment relative to untreated (fraction of untreated control); higher = more community growth; conditions: community: Com21 (Com20 + E. coli ED1a)
Description: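 Com21 (Com20 plus E. coli ED1a) was treated with drug for 24 h under anaerobic conditions in mGAM. Community OD578 was then measured and normalised to untreated Com21; mean of 3 biological replicates.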

[9] = drug pretreatment concentration 10 µM
[10] = drug pretreatment concentration 20 µM
[11] = drug pretreatment concentration 40 µM
[12] = drug pretreatment concentration 80 µM
[13] = drug pretreatment concentration 160 µM
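Wherever IC25 growth inhibition is given: lowest concentration where monotonic median growth AUC falls below 0.75 of drug-free control.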

| SMILES | IC25 growth inhibition [1] | IC25 growth inhibition (Ruminococcus gnavus) | IC25 growth inhibition (Roseburia intestinalis) | IC25 growth inhibition (Clostridium ramosum) | IC25 growth inhibition (Dorea formicigenerans) | IC25 growth inhibition [2] | IC25 growth inhibition (Parabacteroides merdae) | IC25 growth inhibition (Clostridium bolteae) | IC25 growth inhibition (Collinsella aerofaciens) | IC25 growth inhibition (Bacteroides fragilis NT) | IC25 growth inhibition [3] | IC25 growth inhibition (Escherichia coli ED1a) | IC25 growth inhibition [4] | IC25 growth inhibition (Shigella flexneri) | IC25 growth inhibition [5] | IC25 growth inhibition (Clostridium perfringens) | IC25 growth inhibition (Eubacterium rectale) | IC25 growth inhibition (Vibrio cholerae) | IC25 growth inhibition (Streptococcus salivarius) | IC25 growth inhibition [6] | IC25 growth inhibition (Coprococcus comes) | IC25 growth inhibition (Bacteroides vulgatus) | IC25 growth inhibition [7] | IC25 growth inhibition (Bacteroides uniformis) | community biomass OD578 [8, 9] | community biomass OD578 [8, 10] | community biomass OD578 [8, 11] | community biomass OD578 [8, 12] | community biomass OD578 [8, 13] |
| --- | --- | --- | --- | --- | --- | --- | --- | --- | --- | --- | --- | --- | --- | --- | --- | --- | --- | --- | --- | --- | --- | --- | --- | --- | --- | --- | --- | --- | --- |
| CO[C@@H]1[C@@H](OC(N)=O)[C@@H](O)[C@H](Oc2ccc3c(O)c(NC(=O)c4ccc(O)c(CC=C(C)C)c4)c(=O)oc3c2C)OC1(C)C [Novobiocin] | ≤ 20 µM | < 1.25 µM | < 1.25 µM | ≤ 5 µM | < 1.25 µM | ≤ 20 µM | < 1.25 µM | < 1.25 µM | < 1.25 µM | ≤ 20 µM | ≤ 5 µM | ≤ 5 µM | ≤ 20 µM | ≤ 2.5 µM | ≤ 10 µM | ≤ 5 µM | ≤ 5 µM | < 1.25 µM | < 1.25 µM | ≤ 40 µM | < 1.25 µM | < 1.25 µM | < 1.25 µM | < 1.25 µM |  |  |  |  |  |
| Cc1c(N(C)CS(=O)(=O)O)c(=O)n(-c2ccccc2)n1C [Metamizole] |  |  |  |  |  |  |  |  |  |  |  |  |  |  |  |  |  |  |  |  |  |  |  |  | 1 | 0.981 | 1.01 | 1 | 0.994 |
| O=C(O)Cc1cc(I)c(Oc2ccc(O)c(I)c2)c(I)c1 [Tiratricol] | > 160 µM | ≤ 20 µM | ≤ 40 µM | ≤ 20 µM | ≤ 80 µM | > 160 µM | ≤ 40 µM | ≤ 80 µM | ≤ 80 µM | ≤ 80 µM | ≤ 40 µM | > 160 µM | ≤ 80 µM | > 160 µM | ≤ 20 µM | ≤ 20 µM | ≤ 160 µM | ≤ 80 µM | ≤ 10 µM | > 160 µM | ≤ 20 µM | ≤ 40 µM | ≤ 20 µM | ≤ 80 µM |  |  |  |  |  |
| CCn1cc(C(=O)O)c(=O)c2ccc(C)nc21 [Nalidixic Acid] | ≤ 2.5 µM | > 160 µM | > 160 µM | ≤ 160 µM | > 160 µM | > 160 µM | ≤ 80 µM | > 160 µM | > 160 µM | ≤ 160 µM | ≤ 160 µM | ≤ 5 µM | ≤ 160 µM | ≤ 2.5 µM | > 160 µM | ≤ 20 µM | > 160 µM | < 1.25 µM | > 160 µM | ≤ 5 µM | > 160 µM | > 160 µM | > 160 µM | ≤ 160 µM |  |  |  |  |  |
| CC[C@H]1OC(=O)[C@H](C)[C@@H](O[C@H]2C[C@@](C)(OC)[C@@H](O)[C@H](C)O2)[C@H](C)[C@@H](O[C@@H]2O[C@H](C)C[C@H](N(C)C)[C@H]2O)[C@](C)(OC)C[C@@H](C)C(=O)[C@H](C)[C@@H](O)[C@]1(C)O [Clarithromycin] | > 160 µM | < 1.25 µM | < 1.25 µM | < 1.25 µM | < 1.25 µM | ≤ 5 µM | < 1.25 µM | < 1.25 µM | < 1.25 µM | < 1.25 µM | ≤ 5 µM | ≤ 40 µM | < 1.25 µM | ≤ 10 µM | < 1.25 µM | < 1.25 µM | < 1.25 µM | < 1.25 µM | < 1.25 µM | ≤ 40 µM | < 1.25 µM | < 1.25 µM | < 1.25 µM | < 1.25 µM |  |  |  |  |  |
| CC[C@H](C)[C@H]1O[C@]2(C=C[C@@H]1C)C[C@@H]1C[C@@H](C/C=C(\C)[C@@H](O[C@H]3C[C@H](OC)[C@@H](O[C@H]4C[C@H](OC)[C@@H](O)[C@H](C)O4)[C@H](C)O3)[C@@H](C)/C=C/C=C3\CO[C@@H]4[C@H](O)C(C)=C[C@@H](C(=O)O1)[C@]34O)O2.CO[C@H]1C[C@H](O[C@H]2[C@H](C)O[C@@H](O[C@@H]3/C(C)=C/C[C@@H]4C[C@@H](C[C@]5(C=C[C@H](C)[C@@H](C(C)C)O5)O4)OC(=O)[C@@H]4C=C(C)[C@@H](O)[C@H]5OC/C(=C\C=C\[C@@H]3C)[C@]54O)C[C@@H]2OC)O[C@@H](C)[C@@H]1O [Avermectin B1] | > 10 µM | ≤ 10 µM | ≤ 2.5 µM | ≤ 40 µM | ≤ 5 µM | > 10 µM | ≤ 10 µM | ≤ 40 µM | ≤ 10 µM | ≤ 10 µM | > 40 µM | > 160 µM | ≤ 20 µM | > 20 µM | ≤ 80 µM | ≤ 10 µM | ≤ 10 µM | > 20 µM | ≤ 10 µM | > 80 µM | ≤ 20 µM | ≤ 10 µM | ≤ 20 µM | ≤ 20 µM |  |  |  |  |  |
| CCC[C@@H]1C[C@@H](C(=O)N[C@@H]([C@H]2O[C@H](SC)[C@H](O)[C@@H](O)[C@H]2O)[C@H](C)Cl)N(C)C1 [Clindamycin] |  |  |  |  |  |  |  |  |  |  |  |  |  |  |  |  |  |  |  |  |  |  |  |  | 0.263 | 0.273 | 0.238 | 0.158 | 0.062 |
| CN(C)C(=O)C(CCN1CCC(O)(c2ccc(Cl)cc2)CC1)(c1ccccc1)c1ccccc1 [Loperamide] | > 80 µM | ≤ 80 µM | ≤ 40 µM | > 80 µM | ≤ 80 µM | > 80 µM | ≤ 80 µM | > 80 µM | ≤ 80 µM | ≤ 80 µM | > 80 µM | > 160 µM | ≤ 80 µM | > 80 µM | > 80 µM | > 80 µM | ≤ 40 µM | > 80 µM | > 80 µM | > 80 µM | > 80 µM | ≤ 80 µM | > 80 µM | ≤ 80 µM |  |  |  |  |  |
| Cc1c(N(C)CS(=O)(=O)O)c(=O)n(-c2ccccc2)n1C [Metamizol] | > 160 µM | > 160 µM | > 160 µM | > 160 µM | > 160 µM | > 160 µM | > 160 µM | > 160 µM | > 160 µM | > 160 µM | > 160 µM | > 160 µM | > 160 µM | > 160 µM | > 160 µM | > 160 µM | > 160 µM | > 160 µM | > 160 µM | > 160 µM | > 160 µM | > 160 µM | > 160 µM | > 160 µM |  |  |  |  |  |
| O=C1CCc2ccc(OCCCCN3CCN(c4cccc(Cl)c4Cl)CC3)cc2N1 [Aripiprazole] | > 40 µM | > 160 µM | > 160 µM | > 160 µM | > 160 µM | > 160 µM | > 160 µM | > 160 µM | > 160 µM | > 160 µM | > 160 µM | > 160 µM | > 160 µM | > 160 µM | > 160 µM | > 160 µM | > 160 µM | > 160 µM | > 80 µM | > 80 µM | > 160 µM | > 160 µM | > 80 µM | > 160 µM |  |  |  |  |  |

Reference: the supplement of paper PMC12350171
